Source: US20200278355A1, “CONJUGATED PROTEINS AND USES THEREOF” (THE SCRIPPS RESEARCH INSTITUTE, priority 2017, published 2020)
Each block holds one compound with its values, some of them ahead of it.

Legend:
[1] = tested on: cysteine reactivity in H2122 and H1975 cells; assay: isoTOP-ABPP of cysteine reactivity changes after staurosporine or AZD9291 treatment; assay type: cell-based, human; conditions: staurosporine 1 μM, 4 h (H2122, H1975); AZD9291 1 μM, 24 h (H1975)
Procedure: For analysis of cysteines that change following induction of apoptosis, H2122 and H1975 cells were treated with DMSO or staurosporine (1 μM, 4 h) in full RPMI. H1975 cells were treated with DMSO or AZD9291 (1 μM, 24 h) in full RPMI. Cells were lysed as described above. […] Samples were conjugated by copper-catalyzed azide-alkyne cycloaddition (CuAAC) to isotopically labeled, TEV-cleavable tags (TEV-tags). Heavy CuAAC reaction mixtures was added to the DMSO-treated or shGFP control samples and light CuAAC reaction mixture was added to compound-treated or shNRF2 samples. The CuAAC reaction mixture consisted of TEV tags (light or heavy, 10 μL of 5 mM stocks in DMSO, final concentration=100 μM), 1 mM tris(2-carboxyethyl)phosphine hydrochloride (TCEP; fresh 50× stock in water, final concentration=1 mM), ligand (17× stock in DMSO:t-butanol 1:4, final concentration=100 μM) and 1 mM CuSO4 (50× stock in water, final concentration=1 mM). The samples were allowed to react for 1 h at which point the samples were centrifuged (16,000×g, 5 min, 4° C.). The resulting pellets were sonicated in ice-cold methanol (500 μL) and the resuspended light- and heavy-labeled samples were then combined pairwise and centrifuged (16,000×g, 5 min, 4° C.). […] Samples were analyzed using an LTQVelos Orbitrap mass spectrometer (Thermo Scientific) coupled to an Agilent 1200-series quaternary pump. […]

NR0B1 = target: T1, NR0B1 (Homo sapiens, UniProt P51843); assay: isoTOP-ABPP of compound-treated H460 cells: NR0B1; assay type: cell-based; conditions: NSCLC cells, 40 μM, 3 h
T1 construct: H460 cells or H460 cells expressing luciferase in a 10 cm plate were incubated with indicated compounds; endogenous in cells; host or cells: H460 (NSCLC, KEAP1-mutant)
T1 sequence (P51843 1-470): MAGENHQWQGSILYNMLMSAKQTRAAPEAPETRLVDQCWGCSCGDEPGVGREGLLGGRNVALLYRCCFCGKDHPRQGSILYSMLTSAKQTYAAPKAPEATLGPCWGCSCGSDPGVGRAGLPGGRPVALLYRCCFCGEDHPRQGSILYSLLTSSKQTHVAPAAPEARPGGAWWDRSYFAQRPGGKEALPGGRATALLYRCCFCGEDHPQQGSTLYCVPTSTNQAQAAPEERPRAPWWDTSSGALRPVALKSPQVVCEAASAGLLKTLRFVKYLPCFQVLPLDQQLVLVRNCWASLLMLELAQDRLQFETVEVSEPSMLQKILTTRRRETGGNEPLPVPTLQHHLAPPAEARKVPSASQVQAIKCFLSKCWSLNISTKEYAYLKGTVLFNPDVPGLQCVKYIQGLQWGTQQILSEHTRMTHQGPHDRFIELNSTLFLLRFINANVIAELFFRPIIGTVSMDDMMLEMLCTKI
Procedure: For analysis of NR0B1 ligands or control compound reactivity, H460 cells or H460 cells expressing luciferase in a 10 cm plate were incubated with indicated compounds in serum/dye-free RPMI for 3 hours at 37° C. Cells were washed once ice-cold PBS and lysed in 1% Triton X-100 dissolved in PBS with protease inhibitors (Sigma) by sonication. Samples were clarified by centrifugation for 10 min at 16,000×g. Lysate was adjusted to 1.5 mg ml^−1 in 500 μL.
Samples were labeled for 1 h at ambient temperature with 100 μM iodoacetamide alkyne (1, IA-alkyne, 5 μL of 10 mM stock in DMSO). Samples were conjugated by copper-catalyzed azide-alkyne cycloaddition (CuAAC) to isotopically labeled, TEV-cleavable tags (TEV-tags). Heavy CuAAC reaction mixtures was added to the DMSO-treated or shGFP control samples and light CuAAC reaction mixture was added to compound-treated or shNRF2 samples. The CuAAC reaction mixture consisted of TEV tags (light or heavy, 10 μL of 5 mM stocks in DMSO, final concentration=100 μM), 1 mM tris(2-carboxyethyl)phosphine hydrochloride (TCEP; fresh 50× stock in water, final concentration=1 mM), ligand (17× stock in DMSO:t-butanol 1:4, final concentration=100 μM) and 1 mM CuSO4 (50× stock in water, final concentration=1 mM). The samples were allowed to react for 1 h at which point the samples were centrifuged (16,000×g, 5 min, 4° C.). The resulting pellets were sonicated in ice-cold methanol (500 μL) and the resuspended light- and heavy-labeled samples were then combined pairwise and centrifuged (16,000×g, 5 min, 4° C.). The pellets were solubilized in PBS containing 1.2% SDS (1 mL) with sonication and heating (5 min, 95° C.) and any insoluble material was removed by an additional centrifugation step at ambient temperature (14,000×g, 1 min).
For each sample, 100 μL of streptavidin-agarose beads slurry (Fisher) was washed in 10 mL PBS and then resuspended in 6 mL PBS (final concentration 0.2% SDS in PBS). The SDS-solubilized proteins were added to the suspension of streptavidin-agarose beads and the bead mixture was rotated for 3 h at ambient temperature. After incubation, the beads were pelleted by centrifugation (1,400×g, 3 min) and were washed (2×10 mL PBS and 2×10 mL water).
The beads were transferred to eppendorftubes with 1 mL PBS, centrifuged (1,400×g, 3 min), and resuspended in PBS containing 6 M urea (500 μL). To this was added 10 mM DTT (25 μL of a 200 mM stock in water) and the beads were incubated at 65° C. for 15 mins. 20 mM iodoacetamide (25 μL of a 400 mM stock in water) was then added and allowed to react at 37° C. for 30 mins with shaking. The bead mixture was diluted with 900 μL PBS, pelleted by centrifugation (1,400×g, 3 min), and resuspended in PBS containing 2 M urea (200 μL). To this was added 1 mM CaCl2 (2 μL of a 200 mM stock in water) and trypsin (2 μg, Promega, sequencing grade) and the digestion was allowed to proceed overnight at 37° C. with shaking. The beads were separated from the digest with Micro Bio-Spin columns (Bio-Rad) by centrifugation (1,000×g, 1 min), washed (2×1 mL PBS and 2×1 mL water) and then transferred to fresh eppendorf tubes with 1 mL water. The washed beads were washed once further in 140 μL TEV buffer (50 mM Tris, pH 8, 0.5 mM EDTA, 1 mM DTT) and then resuspended in 140 μL TEV buffer. 5 μL TEV protease (80 μM) was added and the reactions were rotated overnight at 29° C. The TEV digest was separated from the beads with Micro Bio-Spin columns by centrifugation (1,400×g, 3 min) and the beads were washed once with water (100 μL). The samples were then acidified to a final concentration of 5% (v/v) formic acid and stored at −80° C. prior to analysis.
Samples processed for multidimensional liquid chromatography tandem mass spectrometry (MudPIT) were pressure loaded onto a 250 μm (inner diameter) fused silica capillary columns packed with C18 resin (Aqua 5 μm, Phenomenex). […]

KEAP1-mutant NSCLC cells = assay: Colony formation in soft agar, KEAP1-mutant NSCLC cells; assay type: cell-based, human; conditions: 5 μM
Text: Based on its in situ activity (FIG. 6D and FIG. 12A, 12G) and selectivity (FIGS. 6A, 6B), BPK-29 was chosen for additional biological studies. […] Exogenous expression of […] the growth inhibition caused by BPK-29.

NR0B1-SNW1 interaction = target: T2, NR0B1-SNW1 interaction (Homo sapiens, UniProt P51843); assay: In vitro binding assay: NR0B1 in H2122 lysate binding to immobilized FLAG-SNW1
T2 construct: endogenous in cells; host or cells: NR0B1: H2122 cell lysate
T2 sequence (P51843 1-470): T1 sequence (P51843 1-470)
Procedure: H2122 clarified cell lysate (100 μL, 1 mg ml^−1) in IP-buffer were incubated with the indicated compounds or vehicle (DMSO) for 3 hours at 4° C. with rotation. Following treatment, 3 volumes of IP-buffer was added along with immobilized FLAG-SNW1 beads (30 μL, 50:50 slurry), which was incubated for an additional hour at 4° C. Beads were washed three times with IP-buffer supplemented with 500 mM NaCl. Immunoprecipitated proteins were resolved by SDS-PAGE and analyzed by immunoblotting. NR0B1 and HA-NR0B1 levels were determined by using the NR0B1 antibody (Cell Signaling). IC50 curves were determined using Prism 6 (Graphpad) software, with maximum and minimum values set at 100% NR0B1 bound 0% NR0B1 bound respectively.
Statistical analysis was preformed using GraphPad Prism version 6 or 7 for Mac, GraphPad Software, La Jolla Calif. USA, or the R statistical programming language. Inhibition curves of the NR0B1-SNW1 interactions by NR0B1-ligand are fit as using log(inhibitor) vs % normalized remaining of NR0B1-SNW1 interaction and data points are plotted as the mean±SD (n=2-5 per group). NR0B1 half-life was calculated from a one-phase exponential decay curve plotted as mean±SD (4-10 per group). Statistical significance was defined as p<0.05 and determined by 2-tailed Student's t-test (FIG. 1I, FIG. 3B), two-way Anova with Bonferroni post-test analysis (FIG. 1J) or correlation analysis using Pearson product-moment correlation coefficient (FIG. 4B, FIG. 10G).
Next, a chemical probe targeting C274 of NR0B1 was developed. Using an in vitro binding assay (FIG. 5B), an ˜80-member library of cysteine-reactive electrophilic compounds was screened at 50 μM for blockade of interactions between endogenous NR0B1 and recombinant FLAG-SNW1 in cell lysates (FIG. 5C). Among the hits (>50% blockade) were a series of N-disubstituted chloroacetamides (CAs), including BPK-26 (FIGS. 5D, 5E), that were selected for further investigation. […] Both BPK-26 and BPK-29 inhibited the NR0B1-SNW1 interaction with IC50 values between 10-20 μM in vitro (FIG. 11C).

SMILES: C=CC(=O)Nc1cc(Nc2nccc(-c3cn(C)c4ccccc34)n2)c(OC)cc1N(C)CCN(C)C [AZD9291]
changes in cysteine reactivity [1]: neither of which caused substantive changes in cysteine reactivity

engagement of C274 of NR0B1 (NR0B1): did not engage C274
inhibition of the NR0B1-SNW1 interaction (NR0B1-SNW1 interaction; tested concentration range of 1-50 μM): did not inhibit
SMILES: COc1cc(CN(C(=O)CCl)c2cc(C(C)(C)C)ccc2OC)ccc1OCc1ccccc1 [BPK-27, N-(4-(benzyloxy)-3-methoxybenzyl)-N-(5-(tert-butyl)-2-methoxyphenyl)-2-chloroacetamide]
colony formation in soft agar (KEAP1-mutant NSCLC cells): much less of an effect

relative potency for inhibition of FLAG-SNW1 binding to NR0B1 (structure-activity relationship) (NR0B1-SNW1 interaction; compounds at 50 μM): only modest reductions in potency
SMILES: Cc1ccccc1C(=O)N1CCCC(N(Cc2ccccc2)C(=O)CCl)CC1 (stereo not drawn) [BPK-28, N-benzyl-2-chloro-N-(1-(2-methylbenzoyl)azepan-4-yl)acetamide]

SMILES: CN[C@@H]1C[C@H]2O[C@@](C)([C@@H]1OC)n1c3ccccc3c3c4c(c5c6ccccc6n2c5c31)C(=O)NC4 [staurosporine]
changes in cysteine reactivity [1]: neither of which caused substantive changes in cysteine reactivity
